This test concerns the target T1, LXRβ (Homo sapiens, UniProt P55055).
T1 construct: Co-transfection expression plasmids, comprising full-length LXRα (pCMX-h LXRα[…] or LXRβ (pCMX-hLXRβ)); expressed in transfected cells; host or cells: CV-1 African Green Monkey Kidney Cells
T1 sequence (P55055 1-460): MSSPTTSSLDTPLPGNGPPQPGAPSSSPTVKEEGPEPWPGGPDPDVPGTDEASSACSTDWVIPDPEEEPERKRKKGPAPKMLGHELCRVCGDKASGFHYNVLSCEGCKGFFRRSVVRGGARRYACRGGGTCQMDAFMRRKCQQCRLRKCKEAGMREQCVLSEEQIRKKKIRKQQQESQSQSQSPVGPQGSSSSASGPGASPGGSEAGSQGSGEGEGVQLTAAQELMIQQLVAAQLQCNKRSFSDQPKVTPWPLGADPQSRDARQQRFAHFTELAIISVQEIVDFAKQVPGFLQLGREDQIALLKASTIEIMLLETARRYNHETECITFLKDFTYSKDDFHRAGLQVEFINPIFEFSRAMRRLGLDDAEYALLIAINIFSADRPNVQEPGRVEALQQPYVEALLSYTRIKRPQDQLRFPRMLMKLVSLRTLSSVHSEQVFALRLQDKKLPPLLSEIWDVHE
T1 sequence (P19793 1-462 partner): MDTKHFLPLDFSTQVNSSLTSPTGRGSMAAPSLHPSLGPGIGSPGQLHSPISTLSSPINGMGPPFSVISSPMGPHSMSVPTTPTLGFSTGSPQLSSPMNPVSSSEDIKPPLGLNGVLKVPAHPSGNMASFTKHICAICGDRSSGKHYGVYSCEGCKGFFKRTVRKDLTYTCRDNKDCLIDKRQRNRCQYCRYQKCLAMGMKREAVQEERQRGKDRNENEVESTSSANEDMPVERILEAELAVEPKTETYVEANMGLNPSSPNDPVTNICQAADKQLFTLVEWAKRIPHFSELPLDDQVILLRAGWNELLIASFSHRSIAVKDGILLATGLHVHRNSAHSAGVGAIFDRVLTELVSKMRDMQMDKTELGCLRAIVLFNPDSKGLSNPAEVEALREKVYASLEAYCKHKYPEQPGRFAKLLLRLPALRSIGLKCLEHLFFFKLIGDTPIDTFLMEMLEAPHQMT
Briefly: Co-transfection assay (LXRE luciferase reporter), LXRβ. In kind it is cell-based. The settings on record: for EC50: CV-1 cells transfected with pCMX-hLXRβ and LXREx1-Tk-Luciferase, 20 hours incubation; for Emax: LXRβ co-transfection, relative to high control 1-(2,4-difluorobenzyl)-2-oxo-6-(4-phenoxyphenyl)-4-(trifluoromethyl)-1,2-dihydropyridine-3-carbonitrile, read-out: % Efficacy. An outline of the steps:
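CV-1 / pCMX-hLXRβ + LXREx1-Tk-Luc + β-gal; cpd 20 h, 37 °C, ≤0.5% DMSO; Steady-Glo luminescence. 11-pt ½-log curves, duplicate wells, sigmoidal fit → EC50; % efficacy vs high-control agonist, DMSO low control; mean of ≥2 expts.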
(In general: A reporter such as luciferase makes a cellular process visible.)

A word on the EC50: it is the concentration at which the effect is half-maximal. Take `Cc1nc(C(F)(F)F)cn1-c1ccc(-c2ccc(CO)c(S(C)(=O)=O)c2)cc1-c1oc(CCO)nc1-c1ccc(OC(F)(F)F)cc1` [Example 613, 2-(5-(4′-(hydroxymethyl)-4-(2-methyl-4-(trifluoromethyl)-1H-imidazol-1-yl)-3′-(methylsulfonyl)-[1,1′-biphenyl]-3-yl)-4-(4-(trifluoromethoxy)phenyl)oxazol-2-yl)ethanol]: the EC50 is 1160 nM and the Emax stood at 62%.

In the case of `Cc1nc(-c2ccc(Cl)cc2Cl)c(-c2cc(-c3ccc(CO)c(S(C)(=O)=O)c3)ccc2-n2cc(C(F)(F)F)nc2C)o1` [Example 614, (3′-(4-(2,4-dichlorophenyl)-2-methyloxazol-5-yl)-4′-(2-methyl-4-(trifluoromethyl)-1H-imidazol-1-yl)-3-(methylsulfonyl)-[1,1′-biphenyl]-4-yl)methanol], the 50% effective concentration (EC50) stood at 47 nM and the Emax is 103%.

With `Cc1nc(-c2ccc3c(c2)OC(F)(F)O3)c(-c2cc(-c3cccc(S(C)(=O)=O)c3)ccc2-n2cc(C(F)(F)F)nc2C)o1` [Example 615, 4-(2,2-difluorobenzo[d][1,3]dioxol-5-yl)-2-methyl-5-(4-(2-methyl-4-(trifluoromethyl)-1H-imidazol-1-yl)-3′-(methylsulfonyl)-[1,1′-biphenyl]-3-yl)oxazol], a half-maximal effect (EC50) was put at 31 nM and the Emax was determined as 96%.

On to `Cc1nc(-c2ccc3c(c2)OC(F)(F)O3)c(-c2cc(-c3ccc(CO)c(S(C)(=O)=O)c3)ccc2-n2cc(C(F)(F)F)nc2C)o1` [Example 616, (3′-(4-(2,2-difluorobenzo[d][1,3]dioxol-5-yl)-2-methyloxazol-5-yl)-4′-(2-methyl-4-(trifluoromethyl)-1H-imidazol-1-yl)-3-(methylsulfonyl)-[1,1′-biphenyl]-4-yl)methanol], for which a half-maximal effect (EC50) was put at 45 nM and the Emax worked out at 96%.

With `Cc1nc(-c2ccc3c(c2)OC(F)(F)O3)c(-c2cc(-c3cc(F)c(CO)c(S(C)(=O)=O)c3)ccc2-n2cc(C(F)(F)F)nc2C)o1` [Example 617, (3′-(4-(2,2-difluorobenzo[d][1,3]dioxol-5-yl)-2-methyloxazol-5-yl)-3-fluoro-4′-(2-methyl-4-(trifluoromethyl)-1H-imidazol-1-yl)-5-(methylsulfonyl)-[1,1′-biphenyl]-4-yl)methanol], the midpoint of the response, the EC50, lay at 37 nM and the Emax came to 84%.

Consider `Cc1nc(C(F)(F)F)cn1-c1ccc(-c2cccc(S(C)(=O)=O)c2)cc1-c1oc(CCO)nc1-c1ccc(Cl)cc1` [Example 618, 2-(4-(4-chlorophenyl)-5-(4-(2-methyl-4-(trifluoromethyl)-1H-imidazol-1-yl)-3′-(methylsulfonyl)-[1,1′-biphenyl]-3-yl)oxazol-2-yl)ethanol], for which a half-maximal effect (EC50) was put at 783 nM and the Emax came to 66%.

As for `Cc1nc(-c2ccc(OC(F)F)cc2)c(-c2cc(-c3cccc(S(C)(=O)=O)c3)ccc2-n2cc(C(F)(F)F)nc2C)o1` [Example 619, 4-(4-(difluoromethoxy)phenyl)-2-methyl-5-(4-(2-methyl-4-(trifluoromethyl)-1H-imidazol-1-yl)-3′-(methylsulfonyl)-[1,1′-biphenyl]-3-yl)oxazole], the midpoint of the response, the EC50, lay at 51 nM and the Emax stood at 112%.

`Cc1nc(C(F)(F)F)cn1-c1ccc(-c2cccc(S(C)(=O)=O)c2)cc1-c1oc(CCN2CCCC2)nc1-c1ccc(OC(F)(F)F)cc1` [Example 620, 5-(4-(2-methyl-4-(trifluoromethyl)-1H-imidazol-1-yl)-3′-(methylsulfonyl)-[1,1′-biphenyl]-3-yl)-2-(2-(pyrrolidin-1-yl)ethyl)-4-(4-(trifluoromethoxy)phenyl)oxazole]: the EC50 was determined as 202 nM and the Emax is 94%.

Regarding `Cc1nc(C(F)(F)F)cn1-c1ccc(-c2cc(F)c(CO)c(S(C)(=O)=O)c2)cc1-c1oc(CCO)nc1-c1ccc2c(c1)OC(F)(F)O2` [Example 621, 2-(4-(2,2-difluorobenzo[d][1,3]dioxol-5-yl)-5-(3′-fluoro-4′-(hydroxymethyl)-4-(2-methyl-4-(trifluoromethyl)-1H-imidazol-1-yl)-5′-(methylsulfonyl)-[1,1′-biphenyl]-3-yl)oxazol-2-yl)ethanol], the concentration for a half-maximal effect (EC50) was 790 nM and the Emax was determined as 81%.

With `Cc1nc(C(F)(F)F)cn1-c1ccc(-c2cccc(S(C)(=O)=O)c2)cc1-c1oc(CCO)nc1-c1ccc2c(c1)OC(F)(F)O2` [Example 622, 2-(4-(2,2-difluorobenzo[d][1,3]dioxol-5-yl)-5-(4-(2-methyl-4-(trifluoromethyl)-1H-imidazol-1-yl)-3′-(methylsulfonyl)-[1,1′-biphenyl]-3-yl)oxazol-2-yl)ethanol], the concentration giving a half-maximal response (EC50) amounted to 410 nM and the Emax came out at 85%.

In the case of `Cc1nc(-c2ccc3c(c2)OC(F)(F)O3)c(-c2cc(-c3cc(Cl)c(CO)c(S(C)(=O)=O)c3)ccc2-n2cc(C(F)(F)F)nc2C)o1` [Example 623, (3-chloro-3′-(4-(2,2-difluorobenzo[d][1,3]dioxol-5-yl)-2-methyloxazol-5-yl)-4′-(2-methyl-4-(trifluoromethyl)-1H-imidazol-1-yl)-5-(methylsulfonyl)-[1,1′-biphenyl]-4-yl)methanol], a half-maximal effect (EC50) was put at 203 nM and the Emax amounted to 80%.

For `Cc1nc(-c2ccc(OC(F)F)cc2)c(-c2cc(-c3cc(F)c(CO)c(S(C)(=O)=O)c3)ccc2-n2cc(C(F)(F)F)nc2C)o1` [Example 624, (3′-(4-(4-(difluoromethoxy)phenyl)-2-methyloxazol-5-yl)-3-fluoro-4′-(2-methyl-4-(trifluoromethyl)-1H-imidazol-1-yl)-5-(methylsulfonyl)-[1,1′-biphenyl]-4-yl)methanol], the EC50 came out at 42 nM and the Emax came out at 112%.

Consider `Cc1nc(-c2ccc(OC(F)F)cc2)c(-c2cc(-c3ccc(CO)c(S(C)(=O)=O)c3)ccc2-n2cc(C(F)(F)F)nc2C)o1` [Example 625, (3′-(4-(4-(difluoromethoxy)phenyl)-2-methyloxazol-5-yl)-4′-(2-methyl-4-(trifluoromethyl)-1H-imidazol-1-yl)-3-(methylsulfonyl)-[1,1′-biphenyl]-4-yl)methanol], for which the concentration for a half-maximal effect (EC50) is 73 nM and the Emax is 117%.

As for `Cc1nc(-c2ccc(OC(F)(F)F)cc2O)c(-c2cc(-c3cccc(S(C)(=O)=O)c3)ccc2-n2cc(C(F)(F)F)nc2C)o1` [Example 626, 2-(2-methyl-5-(4-(2-methyl-4-(trifluoromethyl)-1H-imidazol-1-yl)-3′-(methylsulfonyl)-[1,1′-biphenyl]-3-yl)oxazol-4-yl)-5-(trifluoromethoxy)phenol], the EC50 amounted to 57 nM and the Emax was determined as 62%.

As for `Cc1nc(-c2ccc(OC(F)(F)F)cc2)c(-c2cc(-c3cccc([S+](C)[O-])c3)ccc2-n2cc(C(F)(F)F)nc2C)o1` (stereo not shown) [Example 627, 2-methyl-5-(4-(2-methyl-4-(trifluoromethyl)-1H-imidazol-1-yl)-3′-(methylsulfinyl)-[1,1′-biphenyl]-3-yl)-4-(4-(trifluoromethoxy)phenyl)oxazole], the midpoint of the response, the EC50, lay at 269 nM and the Emax was found to be 93%.

Turning to `Cc1nc(C(F)(F)F)cn1-c1ccc(-c2cccc(S(C)(=O)=O)c2)cc1-c1oc(CCN(C)C)nc1-c1ccc(OC(F)(F)F)cc1` [Example 628, N,N-dimethyl-2-(5-(4-(2-methyl-4-(trifluoromethyl)-1H-imidazol-1-yl)-3′-(methylsulfonyl)-[1,1′-biphenyl]-3-yl)-4-(4-(trifluoromethoxy)phenyl)oxazol-2-yl)ethanamine], the response was half-maximal at 412 nM (EC50) and the Emax amounted to 82%.

Take `Cc1nc(-c2ccccc2C(F)(F)F)c(-c2cc(-c3cccc(S(C)(=O)=O)c3)ccc2-n2cc(C(F)(F)F)nc2C)o1` [Example 629, 2-methyl-5-(4-(2-methyl-4-(trifluoromethyl)-1H-imidazol-1-yl)-3′-(methylsulfonyl)-[1,1′-biphenyl]-3-yl)-4-(2-(trifluoromethyl)phenyl)oxazole]: the midpoint of the response, the EC50, lay at 303 nM and the Emax amounted to 31%.

Source of the values: patent publication US9834542B2, “LXR modulators” (BRISTOL-MYERS SQUIBB COMPANY, priority 2013, dated 2017).
